The target in assay [1] is T1, CCK receptor (pancreas) (Rattus norvegicus, UniProt P30551).
T1 construct: The whole pancreas was dissected free of fat tissue and was homogenized; from tissue; host or cells: rat pancreas membranes (Sprague-Dawley)
T1 sequence (P30551 1-444): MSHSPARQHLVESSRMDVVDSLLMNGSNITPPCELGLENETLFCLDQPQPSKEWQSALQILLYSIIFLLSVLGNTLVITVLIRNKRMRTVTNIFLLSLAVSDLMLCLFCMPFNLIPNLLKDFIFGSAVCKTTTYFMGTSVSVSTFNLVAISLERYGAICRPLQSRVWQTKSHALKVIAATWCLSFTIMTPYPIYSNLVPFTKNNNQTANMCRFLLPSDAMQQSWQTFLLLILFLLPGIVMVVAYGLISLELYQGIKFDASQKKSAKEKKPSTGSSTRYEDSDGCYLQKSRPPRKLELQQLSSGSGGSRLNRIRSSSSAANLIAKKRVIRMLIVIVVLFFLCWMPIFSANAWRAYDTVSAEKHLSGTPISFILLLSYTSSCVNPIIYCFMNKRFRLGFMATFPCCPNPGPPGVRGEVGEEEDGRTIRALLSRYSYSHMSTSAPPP
As to the kind of experiment: CCK Receptor Binding (Pancreas): inhibition of ^125 I-CCK-33 binding. Details: species or system Male Sprague-Dawley rats. In a few lines:
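Rat (male Sprague-Dawley) pancreatic membranes in 50 mM Tris HCl pH 7.7 with DTT, bacitracin, PMSF and o-phenanthroline; ^125I-Bolton Hunter-labelled CCK-33 as radioligand. Incubation 30 min at 37° C, separation by centrifugation, pellet gamma-counted; Scatchard analysis by diluting ^125I-CCK-33 with increasing CCK-33.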

Assay [2] has as its target T2, Gastrin receptor (gastric glands) (Cavia porcellus, UniProt H0VZC5).
T2 construct: The washed guinea pig gastric glands prepared as above were resuspended; from tissue; host or cells: guinea pig gastric mucosal glands (male Hartley)
T2 sequence (H0VZC5 1-426): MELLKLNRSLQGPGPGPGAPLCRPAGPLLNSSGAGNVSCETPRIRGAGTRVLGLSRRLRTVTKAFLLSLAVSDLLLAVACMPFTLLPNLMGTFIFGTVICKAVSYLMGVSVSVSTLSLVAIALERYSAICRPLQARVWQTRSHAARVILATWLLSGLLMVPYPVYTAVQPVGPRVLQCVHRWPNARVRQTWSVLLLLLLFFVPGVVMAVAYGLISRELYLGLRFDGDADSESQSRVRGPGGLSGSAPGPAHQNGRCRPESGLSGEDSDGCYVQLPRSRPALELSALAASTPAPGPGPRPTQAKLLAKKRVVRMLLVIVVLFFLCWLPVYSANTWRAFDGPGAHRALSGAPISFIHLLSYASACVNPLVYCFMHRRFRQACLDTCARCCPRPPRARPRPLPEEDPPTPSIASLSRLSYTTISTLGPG
As to the kind of experiment: Gastrin Receptor Binding in Guinea Pig Gastric Glands. More on the design: species or system guinea pig (male Hartley).

Assay [3] has as its target T3, CCK receptor (brain, cerebral cortex) (Cavia porcellus, UniProt H0VZC5).
T3 construct: Cerebral cortex was dissected and used as a receptor source; from tissue; host or cells: guinea pig cerebral cortex membranes (male Hartley)
T3 sequence (H0VZC5 1-426): T2 sequence (H0VZC5 1-426)
In words: biochemical. It is filed as binding, Male Hartley guinea pigs. An outline of the steps: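 Guinea pig cerebral cortex homogenate as receptor source, with radiolabeled CCK-33 in HEPES buffer containing MgCl2, bacitracin, EGTA and 0.4% BSA. Incubation 2 h at 25°C; bound ligand pelleted by centrifugation and gamma-counted.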

The mark [4] stands for this setting: rat pancreas membranes, ^125 I-CCK-33, 37° C., 30 minutes; read-out: IC50 ^125 I-CCK Pancreas.
Where [5] appears, read: ^125 I-gastrin, 25° C., 30 minutes, read-out: IC50 ^125 I-Gastrin Gastric Glands.
[6] abbreviates: IC50 ^125 I-CCK Brain, guinea pig cerebral cortex, ^125 I-CCK-33, 25° C., 2 hours.
The mark [7] stands for this setting: IC50 ^125 I-CCK Pancreas, rat pancreas membranes, ^125 I-CCK-33, 37° C., 30 minutes.
[8] abbreviates: guinea pig cerebral cortex, ^125 I-CCK-33, 25° C., 2 hours, read-out: IC50 ^125 I-CCK Brain.
The mark [9] stands for this setting: read-out: IC50 ^125 I-CCK Brain, guinea pig cerebral cortex, ^125 I-CCK-33, 25° C., 2 hours.
The mark [10] stands for this setting: IC50 ^125 I-Gastrin Gastric Glands, 25° C., 30 minutes.

Like-named read-outs stand apart in the source and are kept apart here.

Usually IC50 stands for the concentration needed to halve the response being measured. In the case of `CN1C(=O)[C@@H](NC(=O)c2cccc(Br)c2)N=C(c2ccccc2F)c2ccccc21` [Example 154, 3(S)-(+)-3-(3-Bromobenzoylamino)-1,3-dihydro-5-(2-fluorophenyl)-1-methyl-2H-1,4-benzodiazepin-2-one], the results for the IC50 in assay [1] (setting [4]), in assay [2] (setting [5]) and in assay [3] (setting [6]) were 0.0035 µM, 0.5 µM and 3.5 µM, respectively.
As for `CCCCNC(=O)CN1C(=O)C(NC(=O)OCc2ccccc2)N=C(c2ccccc2)c2ccccc21` (stereo not drawn) [Example 213, {2,3-Dihydro-2-oxo-1-[2-oxo-2-(butylamino)ethyl]-5-phenyl-1H-1,4-benzodiazepin-3-yl}-carbamic acid phenylmethyl ester], the IC50 in assay [1] (setting [7]) was 2.1 µM; in assay [2] (setting [5]), 0.28 µM; in assay [3] (setting [8]), 0.38 µM.
Regarding `O=C(O)CN1C(=O)[C@@H](Cc2c[nH]c3ccccc23)N=C(c2ccccc2F)c2ccccc21` [Example 43], the IC50 in assay [1] (read-out: IC50 ^125 I-CCK Pancreas; rat pancreas membranes, ^125 I-CCK-33, 37° C., 30 minutes) came to 0.3 µM; in assay [2] (read-out: IC50 ^125 I-Gastrin Gastric Glands, 25° C., 30 minutes), 5 µM; in assay [3] (setting [9]), 23 µM.
As for `O=C1Nc2ccc(Cl)cc2C(c2ccccc2)=N[C@@H]1COCc1ccccc1` [Example 15, 3(R)-Benzyloxymethyl-7-chloro-1,3-dihydro-5-phenyl-2H-1,4-benzodiazepin-2-one], the results for the IC50 in assay [1] (setting [7]), in assay [2] (setting [10]) and in assay [3] (setting [6]) were 60 µM, 38 µM and 80 µM, respectively.
Turning to `CN1C(=O)[C@@H](NC(=O)c2ccccc2Cl)N=C(c2ccccc2)c2ccccc21` [Example 150, 3(S)-(-)-3-(2-Chlorobenzoylamino)-1,3-dihydro-1-methyl-5-phenyl-2H-1,4-benzodiazepin-2-one], the values for the IC50 in assay [1] (setting [4]), in assay [2] (setting [5]) and in assay [3] (setting [9]) were 1.7 µM, 130 µM and 83 µM, respectively.
As to `CN1C(=O)[C@@H](NC(=O)c2ccc(Br)cc2)N=C(c2ccccc2F)c2ccccc21` [Example 156, 3(S)-(+)-3-(4-Bromobenzoylamino)-1,3-dihydro-5-(2-fluorophenyl)-1-methyl-2H-1,4-benzodiazepin-2-one], the 50% inhibitory concentration (IC50) was determined as 0.0035 µM in assay [1] (setting [7]), 0.68 µM in assay [2] (setting [5]) and 4 µM in assay [3] (setting [6]).
In the case of `O=C(NC1N=C(c2ccccc2F)c2ccccc2NC1=O)c1ccc(Cl)cc1` (racemic) [Example 111, 1,3-Dihydro-3-(RS)-(4-chlorophenylcarbonyl)amino-5-(2-fluorophenyl)-2H-1,4-benzodiazepin-2-one], the half-inhibitory concentration (IC50) was 0.007 µM in assay [1] (setting [7]), 8.4 µM in assay [2] (setting [10]) and 40 µM in assay [3] (setting [6]).
`CCOC(=O)CN1C(=O)C(NC(=O)NC(C)c2ccccc2)N=C(c2ccccc2F)c2ccccc21` (stereo not drawn) [Example 195, 5-(2-Fluorophenyl)-2,3-dihydro-2-oxo-((((1-phenylethyl)amino)carbonyl)amino)-1H-1,4-benzodiazepine-1-acetic acid ethyl ester]: the IC50 in assay [1] (setting [7]) was 4.8 µM; in assay [2] (setting [5]) it was 0.4 µM; in assay [3] (setting [8]), above 0.1 µM.
Consider `C[C@@H](NC(=O)NC1N=C(c2ccccc2)c2ccccc2N(C)C1=O)c1ccccc1` (stereo partly drawn) [Example 261, N-(2,3-Dihydro-1-methyl-2-oxo-5-phenyl-1H-1,4-benzodiazepin-3-yl)-N'-((R)1-phenylethyl)-urea], for which the half-inhibitory concentration (IC50) in assay [1] (setting [7]) was determined as 0.43 µM; in assay [2] (setting [5]), 3.2 µM; in assay [3] (setting [6]), 11 µM.
As to `O=C1Nc2ccccc2C(c2ccccc2)=NC1Cc1c[nH]c2ccc(Br)cc12` (racemic) [Example 57, 3(RS)-[3'-(5'-Bromoindolyl)methyl]-1,3-dihydro-5-phenyl-2H-1,4-benzodiazepin-2-one], the IC50 in assay [1] (setting [7]) was found to be 2.9 µM; in assay [2] (setting [10]), 700 µM; in assay [3] (setting [6]), 100 µM.
As for `CC(C)(C)OC(=O)N[C@H](Cc1c[nH]c2ccccc12)C(=O)Nc1ccccc1C(=O)c1ccccc1F` [Example 1, 2-N-(Nα-Boc-D-tryptophanyl)amino-2'-fluorobenzophenone], the IC50 was 67 µM in assay [1] (setting [4]), 167 µM in assay [2] (setting [5]) and above 100 µM in assay [3] (read-out: IC50 ^125 I-CCK Brain).
On to `O=C(OC1N=C(c2ccccc2)c2ccccc2NC1=O)c1cc2ccccc2[nH]1` (racemic) [Example 107, 1,3-Dihydro-3-(RS)-(2-indolecarbonyloxy)-5-phenyl-2H-1,4-benzodiazepin-2-one], for which the results for the IC50 in assay [1] (setting [7]), in assay [2] (setting [10]) and in assay [3] (setting [6]) were 0.049 µM, above 10 µM and 50 µM, respectively.
In the case of `CN1C(=O)C(CC(=O)Nc2ccc(Cl)cc2)N=C(c2ccccc2)c2ccccc21` (stereo not drawn) [Example 297, N-(4-Chlorophenyl)-2,3-dihydro-1-methyl-2-oxo-5-phenyl-1H-1,4-benzodiazepine-3-acetamide], the results for the IC50 in assay [1] (setting [7]), in assay [2] (setting [5]) and in assay [3] (setting [8]) were 1.8 µM, 5.2 µM and 3.7 µM, respectively.
Regarding `CN1C(=O)C(C(=O)c2ccsc2)N=C(c2ccccc2)c2ccccc21` (racemic) [Example 48, 1,3-Dihydro-1-methyl-5-phenyl-3-(RS)-(3-thienoyl)-2H-1,4-benzodiazepin-2-one], the 50% inhibitory concentration (IC50) was 54 µM in assay [1] (setting [7]), 8.4 µM in assay [2] (setting [5]) and 33 µM in assay [3] (setting [8]).
Consider `CN1C(=O)C(C(=O)Nc2ccc(Cl)cc2)N=C(c2ccccc2)c2ccccc21` (stereo not drawn) [Example 197, N-(4-Chlorphenyl)-2,3-dihydro-1-methyl-2-oxo-5-phenyl-1H-1,4-benzodiazepine-3-carboxamide], for which the figures for the IC50 in assay [1] (setting [7]), in assay [2] (setting [5]) and in assay [3] (setting [8]) were 1.9 µM, 10 µM and 5.9 µM, respectively.
With `CSC1=N[C@@H](Cc2c[nH]c3ccccc23)C(=O)N(C)c2ccccc21` [Example 8, 1,3-Dihydro-3(S)-(3'-indolyl)methyl-1-methyl-5-methylthio-2H-1,4-benzodiazepin-2-one], the IC50 in assay [1] (setting [4]) amounted to 100 µM; in assay [2] (setting [5]) it was 227 µM; in assay [3] (setting [8]) it was 100 µM.
Consider `O=C(c1ccccc1F)c1ccccc1NC(=O)C(CN1C(=O)c2ccccc2C1=O)N1C(=O)c2ccccc2C1=O` (racemic) [Example 62, 2-N-[2(RS)-3-diphthalylaminopropanoyl]amino-2'-fluorobenzophenone], for which the IC50 was above 100 µM in assay [1] (setting [4]), above 1000 µM in assay [2] (setting [5]) and above 100 µM in assay [3] (setting [8]).
For the compound `CN1C(=O)C(C(=O)c2ccsc2)=NC(O)(c2ccccc2)c2ccccc21` (racemic) [Example 53b, 1,5-Dihydro-5-(RS)-hydroxy-1-methyl-5-phenyl-3-(3'-thienoyl)-2H-1,4-benzodiazepin-2-one], the IC50 in assay [1] (setting [4]) is 19 µM; in assay [2] (setting [5]) it was above 100 µM; in assay [3] (setting [8]) it was 100 µM.
As for `CN1C(=O)C(NC(=O)c2ccc(Br)cc2)N=C(c2ccccc2)c2ccccc21` (stereo not drawn) [Example 216, 4-Bromo-N-(2,3-dihydro-1-methyl-2-oxo-5-phenyl-1H-1,4-benzodiazepin-3-yl)-benzamide], the results for the half-maximal inhibitory concentration (IC50) in assay [1] (setting [4]), in assay [2] (setting [5]) and in assay [3] (setting [6]) were 0.001 µM, 1.7 µM and 2.4 µM, respectively.
Regarding `Cc1cccc2c1NC(=O)C(NC(=O)c1cc3ccccc3[nH]1)N=C2c1ccccc1` (stereo not drawn) [Example 287, 3-N-(2,3-Dihydro-9-methyl-2-oxo-5-phenyl-1H-1,4-benzodiazeoin-3-yl)-1H-indole-2-carboxamide], the results for the IC50 in assay [1] (setting [7]), in assay [2] (setting [5]) and in assay [3] (setting [8]) were 0.00074 µM, 0.95 µM and 1 µM, respectively.
Consider `CN1C(=O)C(NC(=O)Nc2ccc(F)cc2)N=C(c2ccccc2)c2ccccc21` (stereo not drawn) [Example 259, N-(2,3-Dihydro-1-methyl-2-oxo-5-phenyl-1H-1,4-benzodiazepin-3-yl)-N'-(4-fluorophenyl)-urea], for which the results for the IC50 in assay [1] (setting [4]), in assay [2] (setting [5]) and in assay [3] (setting [8]) were 0.046 µM, 0.014 µM and 0.066 µM, respectively.

(Values after patent publication US4820834A, “Benzodiazepine analogs” (priority 1987, dated 1989).)
